One test relates to HL-60. The test is described as follows: Antiproliferative MTT assay, HL-60. It is filed as cell-based, human. The following applies: for IC50: Homo sapiens, read-out: IC50 HL-60; for SI HL-60: SI = IC50 BALB/3T3 / IC50 HL-60. The text has this: (§1) Four human cancer cell lines and one normal cell line were used to evaluate anticancer activity of SAL and its N-benzyl amides: human acute promyelocytic leukemia (HL-60) and its vincristine resistant subline (HL-60/vinc), human colon adenocarcinoma cell lines sensitive (LoVo) and resistant to doxorubicin (LoVo/dx) as well as also normal murine embryonic fibroblast cell line (BALB/3T3). The BALB/3T3 cell line was purchased from the American Type Culture Collection (ATCC Rockville, MD, USA), HL-60 cell line from European Type Culture Collection by courtesy of Professor Spik and Dr Mazurier (Laboratory of Biological Chemistry USTL, Lille, France) and HL-60/vinc, LoVo and LoVo/dx by courtesy of Prof. E. Borowski (Technical University of Gdańsk, Gdańsk, Poland). All the cell lines are maintained in the Institute of Immunology and Experimental Therapy (IIET), Wrocław, Poland.
(§2) Human leukemia cells were cultured in ISCOVE medium (IIET, Wroclaw, Polond) containing 10% fetal bovine serum and 2 mM L-glutamine (Sigma Aldrich) and 1 µg/100 mL […] for HL-60/vinc (Sigma Aldrich). Human colon adenocarcinoma cell lines were cultured in mixture of OptiMEM and RPMI 1640 (1:1) medium (IIET) supplemented with 5% fetal bovine serum (Thermo Fisher Scientific, Waltham, MA, USA), 2 mM L-glutamine, 1 mM sodium pyruvate (Sigma Aldrich) and 10 µg/100 mL doxorubicin for LoVo/dx (Sigma Aldrich). Murine embryonic fibroblast cells were cultured in Dulbecco medium (Gibco, Darmstadt, Germany) supplemented with 10% fetal bovine serum (Thermo Fisher Scientific) and 2 mM L-glutamine (Sigma Aldrich). All culture media contained antibiotics: 100 U/mL penicillin (Sigma Aldrich) and 100 µg/mL streptomycin (Polfa-Tarchomin, City, Poland). All cell lines were cultured during entire experiment in humid atmosphere at 37 °C and 5% CO2.
(§3) Twenty four hours before adding the tested compounds all cell lines were seeded in 96-well plates (Sarstedt, Nümbrecht, Germany) in appropriate media with 10^4 cells per well. All cell lines were exposed to each tested agent at four different concentrations from the range 100 to 0.1 µg/mL for 72 h. The cells were also exposed to the reference drugs: cisplatin (Accord, London, UK) and doxorubicin hydrochloride (Fluka, St. Louis, MO, USA). Additionally, all cell lines were exposed to DMSO (the solvent used for tested compounds, Sigma Aldrich) at the concentrations corresponding to those in the tested agent dilutions. For adherent cells sulphorodamine B assay was performed and MTT assay for leukemia cells.
(§4) Proliferation inhibition of leukemia cells by tested compounds was measured by means of MTT assay. Thus, 20 µL of 3-(4,5-dimethylthiazol-2-yl)-2,5-diphenyl tetrazolium bromide solution (Sigma Aldrich) were added to each well and plates were left in cell incubator for 4 h to allow the cells to metabolize yellow MTT to blue formazan. Then, the lysing mixture consisting of 225 mL dimethylformamide, 67.5 g sodium dodecyl sulfate (both from Sigma Aldrich) and 275 mL of distilled water was added in 80 µL volume per well. Plates were incubated for 24 h for the formazan crystals to be released from cells, dissolved and then absorbance of each well was read at Synergy H4 photometer (BioTek Instruments) at 570 nm wavelength.
(§5) Results are presented as mean IC50 (concentration of the tested compound that inhibits cell proliferation by 50%) ± standard deviation. IC50 values were calculated in Cheburator 1.0.2, Dmitry Nevozhay software for each experiment. Compounds at each concentration were tested in triplicates in single experiment and each experiment was repeated at least three times independently. The IR was defined as the ratio of IC50 for a given compound calculated for resistant cell line to that measured for its parental drug sensitive cell line (Table 4).

Another test concerns HL-60/vinc. The test is described as follows: Antiproliferative MTT assay, HL-60/vinc. It is filed as cell-based, human. The note with it: for IC50: Homo sapiens, HL60/vinc, 72 h, read-out: IC50 HL-60/vinc; for IR HL-60/vinc: IR = IC50 HL-60/vinc / IC50 HL-60; for SI HL-60/vinc: SI = IC50 BALB/3T3 / IC50 HL-60/vinc.
Source text: as §1, §2, §3, §4, §5
For orientation: Formazan colour is commonly taken as a measure of viable cells.

The test system of a further test is LoVo. The test is described as follows: Antiproliferative SRB assay, LoVo. It counts as cell-based, human. The note with it: for IC50: Homo sapiens, LoVo, 72 h, read-out: IC50 LoVo; for SI LoVo: SI = IC50 BALB/3T3 / IC50 LoVo.
Source text: as §1, §2, §3
(§6) After 72 h of incubation with tested compounds the cells were fixed in situ by gently adding of 50 µL per well of cold 50% trichloroacetic acid TCA (Avantor Performance Materials, City, Poland) and were incubated at 4 °C for 1 h. Then the wells were washed four times with water and air-dried. Next, 50 µL of 0.2% solution of sulphorodamine B (Sigma Aldrich) in 1% acetic acid (Avantor Performance Materials) were added to each well and plates were incubated at room temperature for 0.5 h. After incubation time, unbound dye was removed by washing plates four times with 1% acetic acid, whereas the stain bound to cells was solubilized with 150 µL of 10 mM Tris base (Sigma Aldrich). Absorbance of each solution was read at Synergy H4 photometer (BioTek Instruments, Winooski, VT, USA) at 540 nm wavelength.
as §5

Another test relates to LoVo/dx. The test is described as follows: Antiproliferative SRB assay, LoVo/dx. The note with it: for IC50: Homo sapiens, LoVo/DX, 72 h, read-out: IC50 LoVo/dx; for IR LoVo/DX: IR = IC50 LoVo/dx / IC50 LoVo; for SI LoVo/DX: SI = IC50 BALB/3T3 / IC50 LoVo/dx. It counts as cell-based, human.
Source text: as §1, §2, §3, §6, §5
A general note: In SRB staining, fixed cells bind dye roughly in proportion to their protein.

Test [1] concerns M. tuberculosis standard H37Rv strain. The test is described as follows: Tuberculostatic activity, test-tube dilution. It counts as cell-based. The following applies: Mycobacterium tuberculosis, read-out: MIC M. tuberculosis Standard H37Rv Strain.
For test [2], the system named is M. tuberculosis isoniazid-sensitive strain (spec. 192). The experiment in a line: Tuberculostatic activity, test-tube dilution. The note with it: Mycobacterium tuberculosis, read-out: MIC M. tuberculosis Isoniazid-Sensitive Strain. It is filed as cell-based.
In test [3] the test system is HL-60, HL-60/vinc, LoVo, LoVo/dx. The experiment in a line: Antiproliferative assays, all four cancer cell lines (range given). It is filed as cell-based. The following applies: Homo sapiens, read-out: IC50 (range over the cancer cell lines).
Source text: as §1, §2, §3, §6
Proliferation inhibition of leukemia cells by tested compounds was measured by means of MTT assay. […]

Test [4] deals with standard and "wild" strains of M. tuberculosis. The experiment in a line: Tuberculostatic activity, all M. tuberculosis strains (overall). It counts as cell-based. The following applies: Mycobacterium tuberculosis, H37RV, read-out: MIC (over M. tuberculosis strains).

Usually MIC stands for the smallest concentration in the dilution series that meets the test's criterion for growth inhibition.

In brackets after ≈: the same amount, converted by molar mass. Read-outs that look alike come from different tables or passages of the source.

`CC[C@H](C(=O)NCc1ccccc1Br)C1CC[C@H](C)C([C@@H](C)[C@H](O)[C@H](C)C(=O)[C@H](CC)C2O[C@]3(C=C[C@@H](O)C4(CC[C@@](C)(C5CC[C@](O)(CC)[C@H](C)O5)O4)O3)[C@H](C)C[C@@H]2C)O1` (stereo partly shown) [Br-o]: the IC50 is 3.13 ± 0.71 µM in the test on HL-60 (HL-60, 72 h, MTT, mean ± SD, NA: not active in concentrations used (up to 100 µg/mL)); 4.8 ± 1.48 µM in the test on HL-60/vinc; 3.64 ± 0.07 µM in the test on LoVo (SRB, mean ± SD); 2.87 ± 0.29 µM in the test on LoVo/dx; 2.32 to 6.84 µM in test [3] (range over HL-60, HL-60/vinc, LoVo, LoVo/dx). Moreover, the “SI HL-60” value in the test with HL-60 was 2.08. The “IR HL-60/vinc” value in the test on HL-60/vinc turned out to be 1.53. In addition, the “SI HL-60/vinc” value in the test on HL-60/vinc turned out to be 1.36. The “SI LoVo” value in the test with LoVo stood at 1.79. Further, the “IR LoVo/DX” value in the test on LoVo/dx turned out to be 0.79. For the same molecule, the “SI LoVo/DX” value in the test on LoVo/dx stood at 2.27. Also, the MIC in test [1], in test [2] and in test [4] was more than 100 µg/mL each time.
Take `CCC(C(=O)NCc1ccccc1F)C1CCC(C)C(C(C)C(O)C(C)C(=O)C(CC)C2OC3(C=CC(O)C4(CCC(C)(C5CCC(O)(CC)C(C)O5)O4)O3)C(C)CC2C)O1` (stereo not shown) [F-o]: the IC50 is 3.63 ± 0.14 µM with HL-60 (HL-60, 72 h); 4.44 ± 1.73 µM in the test with HL-60/vinc; 3.49 ± 0.59 µM with LoVo; 2.32 ± 0.69 µM with LoVo/dx; 2.32 to 6.84 µM in test [3]. Besides, the “SI HL-60” value with HL-60 is on record as 1.64. In addition, the “IR HL-60/vinc” value in the test on HL-60/vinc is 1.22. In the test with HL-60/vinc, the “SI HL-60/vinc” value is recorded as 1.34. Moreover, the “SI LoVo” value in the test on LoVo came out at 1.71. In addition, the “IR LoVo/DX” value in the test on LoVo/dx worked out at 0.66. Further, the “SI LoVo/DX” value in the test on LoVo/dx is reported as 2.57. For the same molecule, the figures for the minimal inhibitory concentration (MIC) in test [1] and in test [2] were 100 µg/mL (≈ 117 µM) and 50 µg/mL (≈ 58.3 µM), respectively.
Turning to `CCC(C(=O)NCc1ccccc1[N+](=O)[O-])C1CCC(C)C(C(C)C(O)C(C)C(=O)C(CC)C2OC3(C=CC(O)C4(CCC(C)(C5CCC(O)(CC)C(C)O5)O4)O3)C(C)CC2C)O1` (stereo not shown) [NO2-o], in the test with HL-60 (HL-60, 72 h), the IC50 is 3.47 ± 0.44 µM. For the same molecule, the “SI HL-60” value in the test with HL-60 is on record as 2.75. Moreover, in the test on HL-60/vinc, the IC50 was 6.84 ± 2.04 µM, the “IR HL-60/vinc” value is listed as 1.97 and the “SI HL-60/vinc” value came to 1.40. For the same molecule, in the test on LoVo, the IC50 came out at 3.81 ± 0.18 µM and the “SI LoVo” value was 2.51. In addition, in the test on LoVo/dx, the IC50 is 2.45 ± 0.26 µM, the “IR LoVo/DX” value was 0.64 and the “SI LoVo/DX” value was 3.90. In addition, the MIC in test [1] turned out to be 50 µg/mL (≈ 56.5 µM). Moreover, in test [2], the MIC came to 50 µg/mL (≈ 56.5 µM). Also, the IC50 in test [3] lay within 2.32 to 6.84 µM.

Source of the values: article PMC6271077, “Synthesis, Anticancer and Antibacterial Activity of Salinomycin N-Benzyl Amides” (Molecules, 2014).
